In article PMC8317467 (FASEB journal : official publication of the Federation of …, 2020):
Positions count from the first letter of the chain named. “Also recorded” adds a separate entry of the source.

Legend:
[1] = target: T1, F439Y-ABCG2 (Homo sapiens, UniProt Q9UNQ0, F439Y); assay: Transport assay; type: cell-based; conditions: 0.5 μM of Hoechst 33342, ± 10 μM of Lapatinib, 120 min
T1 sequence (Q9UNQ0 1-655 F439Y): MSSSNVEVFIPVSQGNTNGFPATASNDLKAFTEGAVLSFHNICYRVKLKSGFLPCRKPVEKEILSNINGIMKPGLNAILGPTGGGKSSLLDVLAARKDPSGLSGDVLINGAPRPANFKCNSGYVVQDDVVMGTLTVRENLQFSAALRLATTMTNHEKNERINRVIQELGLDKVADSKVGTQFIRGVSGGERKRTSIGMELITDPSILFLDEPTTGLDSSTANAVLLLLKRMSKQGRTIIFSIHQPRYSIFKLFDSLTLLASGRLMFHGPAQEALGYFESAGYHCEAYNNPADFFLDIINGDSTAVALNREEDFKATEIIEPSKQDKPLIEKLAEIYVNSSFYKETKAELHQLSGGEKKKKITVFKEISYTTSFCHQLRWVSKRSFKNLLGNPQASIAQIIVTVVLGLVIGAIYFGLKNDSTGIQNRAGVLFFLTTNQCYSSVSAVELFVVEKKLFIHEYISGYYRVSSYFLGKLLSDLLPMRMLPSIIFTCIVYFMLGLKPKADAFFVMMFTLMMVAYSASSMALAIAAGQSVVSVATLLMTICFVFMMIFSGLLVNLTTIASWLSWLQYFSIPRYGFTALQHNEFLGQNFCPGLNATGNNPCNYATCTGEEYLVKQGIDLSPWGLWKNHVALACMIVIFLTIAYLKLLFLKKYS

[2] = target: T2, F439W-ABCG2 (Homo sapiens, UniProt Q9UNQ0, F439W); assay: Transport assay; type: cell-based; conditions: 0.5 μM of Hoechst 33342, ± 10 μM of Lapatinib, 120 min
T2 sequence (Q9UNQ0 1-655 F439W): T1 sequence (Q9UNQ0 1-655 F439Y) with Y439W

[3] = target: T3, F439A-ABCG2 (Homo sapiens, UniProt Q9UNQ0, F439A); assay: Transport assay; type: cell-based; conditions: 0.5 μM substrate
T3 sequence (Q9UNQ0 1-655 F439A): T1 sequence (Q9UNQ0 1-655 F439Y) with Y439A

[4] = target: T2, F439W-ABCG2; assay: Membrane thermal shift, MEF membrane vesicles, F439W; type: binding; conditions: 10 μM of Hoechst 33342, 60 min at 37°C
[5] = target: T1, F439Y-ABCG2; assay: Membrane thermal shift, MEF membrane vesicles, F439Y; type: binding; conditions: 10 μM of Hoechst 33342, 60 min at 37°C
[6] = target: T4, WT-ABCG2 (Homo sapiens, UniProt Q9UNQ0); assay: Membrane thermal shift, MEF membrane vesicles, WT-ABCG2; type: binding; conditions: 10 μM of ligand, 60 min at 37°C, heated 3 min at 65°C
T4 sequence (Q9UNQ0 1-655): T1 sequence (Q9UNQ0 1-655 F439Y) with Y439F

[7] = test system: F439A; conditions: ref 11 (Manolaridis et al); cited from earlier work
[8] = test system: N436A; conditions: ref 11 (Manolaridis et al); cited from earlier work

| Structure (SMILES) | transport of substrate by F439Y-ABCG2 [1] | transport of substrate by F439W-ABCG2 [2] | transport of substrate by F439A-ABCG2 [3] | thermal stabilization of F439W-ABCG2 by ligand [4] | thermal stabilization of F439Y-ABCG2 by ligand [5] | thermal stabilization of WT-ABCG2 by ligand [6] | transport of substrate by F439A [7] | transport of substrate by N436A [8] |
| --- | --- | --- | --- | --- | --- | --- | --- | --- |
| CCOc1ccc(-c2nc3ccc(-c4nc5ccc(N6CCN(C)CC6)cc5[nH]4)cc3[nH]2)cc1 [Hoechst 33342] | transport activity similar to WT-ABCG2 | transport activity similar to WT-ABCG2 | incapable of transporting; also recorded: no net ABCG2 mediated transport | stabilized | stabilized | stabilized | – | – |
| C[C@]12CC[C@@H]3c4ccc(OS(=O)(=O)O)cc4CC[C@H]3[C@@H]1CCC2=O [estrone-3-sulfate] | – | – | – | – | – | – | could not transport | incapable |
